Biological target: AKT1 (Homo sapiens, UniProt P31749)
Experiment: HTS off-chip mobility-shift assay, typical screen parameters for AKT1
Assay type: biochemical
Settings: read-out: inhibition (control inhibitor)
Text: The following procedures describe the reagent and plate preparation for a HTS of an ATP-utilizing enzyme, such as a protein kinase, run in an off-chip mobility-shift assay format. The following provides an HTS protocol for running a protein kinase HTS screen on a Caliper HTS 250 microfluidics system. The following parameters are dependent on the protein kinase used and can be determined by one skilled in the art as part of a typical assay development process. For example, the peptide substrate used can be identified from the current literature, by screening a peptide library of potential protein kinase substrates, or by other applicable means accepted in the field.
The following table provides typical screen assay parameters appropriate for a Caliper HTS 250 microfluidics system used to assay AKT1. Parameters used to assay other protein kinases can be determined by one skilled in the art. […]
Assays to determine the kinase inhibitory activity of compounds of the present disclosure were performed using a Caliper HTS 250 microfluidics device, Greiner U-bottom assay plates, a Multidrop for transfer of reagents, and Biomek FX (AMNCBM03) software. […] The inhibition of the ATP-utilizing enzyme, such as a particular protein kinase, was determined by measuring the ratio of the peptide substrate to phosphorylated product for each well of the assay plate using the Caliper HTS 250 system.

AKT1, sequence (P31749 whole entry): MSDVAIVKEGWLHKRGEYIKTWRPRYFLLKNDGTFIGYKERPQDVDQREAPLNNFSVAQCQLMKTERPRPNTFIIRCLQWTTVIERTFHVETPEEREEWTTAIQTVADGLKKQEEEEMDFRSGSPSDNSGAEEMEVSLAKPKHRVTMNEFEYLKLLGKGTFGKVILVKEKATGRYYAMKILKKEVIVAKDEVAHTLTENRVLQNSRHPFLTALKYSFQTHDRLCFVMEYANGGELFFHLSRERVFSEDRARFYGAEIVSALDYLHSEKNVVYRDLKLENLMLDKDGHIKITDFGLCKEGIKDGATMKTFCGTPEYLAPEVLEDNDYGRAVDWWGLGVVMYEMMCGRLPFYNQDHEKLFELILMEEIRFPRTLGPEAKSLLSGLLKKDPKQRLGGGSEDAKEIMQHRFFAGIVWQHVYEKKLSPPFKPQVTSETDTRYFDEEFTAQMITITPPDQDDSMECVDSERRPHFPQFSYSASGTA

Row | SMILES | inhibition at 20000 µM (inhibitor concentration 20 mM, AKT1 screen) [%] | inhibition at 0.138 µM [%]
1 | O=C(O)CN(CCN(CC(=O)O)CC(=O)O)CC(=O)O [EDTA, ethylenediaminetetraacetic acid] | 100 | 
2 | CN[C@@H]1C[C@H]2O[C@@](C)([C@@H]1OC)n1c3ccccc3c3c4c(c5c6ccccc6n2c5c31)C(=O)NC4 [Staurosporine] |  | 70

From patent US20050085531A1, “Thiophene-based compounds exhibiting ATP-utilizing enzyme inhibitory activity, and compositions, and uses thereof” (priority 2003, published 2005)
